Assay results from PubChem BioAssay AID1963966 (Molecular Pharmacology Branch, DTP, NCI, 2024).

Test system: 935938-334-R-J1-PDC spheroids with HUVEC/MSC, viability
Assay: Anticancer human tumor 935938-334-R-J1-PDC patient-derived small intestine adenocarcinoma cell line growth inhibition [PI3K]
Settings: for IC50: curve of first compound; for viability, T/C: stronger effect = lower value
From the text: Combinatorial screen of targeted agents with the PI3K inhibitors inavolisib, alpelisib, duvelisib, and copanlisib in multi-cell type tumor spheroids
A high-throughput screen of multi-cell type tumor spheroids was designed to identify active combinations of targeted small molecules and PI3K pathway inhibitors. Complex spheroids include a stromal component modeled by human endothelial cells (HUVEC) and fibroblasts modeled by human mesenchymal stem cells (MSCs). The concentration ranges selected for each drug and investigational agent were based upon clinically achievable concentrations if the clinical Cmax of the agent was known.
Compounds. The drugs and investigational agents: inavolisib (NSC800729), alpelisib (NSC765974), duvelisib (NSC772469), copanlisib (NSC816437), ipatasertib (NSC767898), afuresertib (NSC778305), talazoparib (NSC767125), sapanisertib (NSC764658), selumetinib (NSC741078), tovorafenib (DAY101, NSC766906), vemurafenib (NSC761431), ravoxertinib (NSC781343), sotorasib (NSC818433), MRTX1133 (NSC 836407), abemaciclib (NSC 768073), palbociclib (NSC758247), venetoclax (NSC 766270), SY5609 (NSC837396), enzalutamide (NSC755605), and darolutamide (NSC825331), were obtained from the National Cancer Institute (NCI) Developmental Therapeutics Program Chemical Repository. The FDA-approved anticancer drug set is available from the NCI Developmental Therapeutics Program. […] The stock solutions were prepared in dimethyl sulfoxide (DMSO, Sigma-Aldrich, St. Louis, MO, cat. D2650) at 800-fold the tested concentration and stored at -70 degrees C prior to their use. All drugs and investigational agents were tested over a range starting from a high concentration at or near the clinical Cmax and decreasing in half-log increments. If the clinical Cmax for an agent had not been determined, the highest concentration tested was 10 microM.
Cell Culture. All cells were maintained in an incubator at 37 degrees C and 5% CO2 with 95% humidity. The PDC lines were cultured according to standard operating procedures established by the NCI PDMR (https://pdmr.cancer.gov/sops/default.htm). All PDCs were thawed and cultured in Matrigel-coated flasks prepared with a working solution of 1X Ham's F-12 nutrient mix, without supplementation (Invitrogen, Waltham, MA, cat. 11765054), 100 U/mL penicillin-streptomycin (Invitrogen, cat. 15140122), and 2.5% Matrigel (Corning Inc., Corning, NY, cat. 354248) for the first three passages. The 354836-022-R-J1-PDC, 475296-252-R-J1-PDC, and 997726-040-R-J2-PDC lines were cultured in 6A media, which includes advanced DMEM/F-12 (Thermo Fisher Scientific, cat. 12634028), 10 mM HEPES (Thermo Fisher Scientific, cat. 15630080), 1X GlutaMAX supplement (Thermo Fisher Scientific, cat. 35050061), 0.1 mg/mL primocin (InvivoGen, San Diego, CA, cat. ant-pm-2), 10% defined fetal bovine serum, heat inactivated (HyClone Laboratories Inc., Logan, UT, cat. SH30070.03HI), 50% L-WRN conditioned media (ATCC, cat. CRL-3276), 1.25 mM N-Acetyl-L-cysteine (Sigma-Aldrich, cat. A9165), 10 mM nicotinamide (Sigma-Aldrich, cat. N0636), 1X B-27 supplement (Thermo Fisher Scientific, cat. 17504044), 1X N-2 supplement (Thermo Fisher Scientific, cat. 17502048), and 10 microM Y-27632 dihydrochloride (Tocris Bioscience, Bristol, United Kingdom, cat. 1254). The 624824-186-R-J2-PDC line was cultured in 6C/Colon 1B media, which includes all 6A media components plus 50 ng/mL human EGF recombinant protein (Thermo Fisher Scientific, cat. PHG0311). […]

[1] = second compound 0.00316 µM, first compound 0.0316 µM
[2] = second compound 0.00316 µM, first compound 0.1 µM
[3] = second compound 0.00316 µM, first compound 0.316 µM
[4] = second compound 0.00316 µM, first compound 1 µM
[5] = second compound 0.00316 µM, first compound 3.16 µM
[6] = second compound 0.00316 µM, first compound 10 µM
[7] = second compound 0.01 µM, first compound 0.0316 µM
[8] = second compound 0.01 µM, first compound 0.1 µM
[9] = second compound 0.01 µM, first compound 0.316 µM
[10] = second compound 0.01 µM, first compound 1 µM
[11] = second compound 0.01 µM, first compound 3.16 µM
[12] = second compound 0.01 µM, first compound 10 µM
[13] = second compound 0.0316 µM, first compound 0.0316 µM
[14] = second compound 0.0316 µM, first compound 0.1 µM
[15] = second compound 0.0316 µM, first compound 0.316 µM
[16] = second compound 0.0316 µM, first compound 1 µM
[17] = second compound 0.0316 µM, first compound 3.16 µM
[18] = second compound 0.0316 µM, first compound 10 µM
[19] = second compound 0.1 µM, first compound 0.0316 µM
[20] = second compound 0.1 µM, first compound 0.1 µM
[21] = second compound 0.1 µM, first compound 0.316 µM
[22] = second compound 0.1 µM, first compound 1 µM
[23] = second compound 0.1 µM, first compound 3.16 µM
[24] = second compound 0.1 µM, first compound 10 µM
[25] = second compound 0.316 µM, first compound 0.0316 µM
[26] = second compound 0.316 µM, first compound 0.1 µM
[27] = second compound 0.316 µM, first compound 0.316 µM
[28] = second compound 0.316 µM, first compound 1 µM
[29] = second compound 0.316 µM, first compound 3.16 µM
[30] = second compound 0.316 µM, first compound 10 µM
[31] = second compound 1 µM, first compound 0.0316 µM
[32] = second compound 1 µM, first compound 0.1 µM
[33] = second compound 1 µM, first compound 0.316 µM
[34] = second compound 1 µM, first compound 1 µM
[35] = second compound 1 µM, first compound 3.16 µM
[36] = second compound 1 µM, first compound 10 µM
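Further: compound exposure lasted seven days before viability was read.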
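Wherever viability, T/C is given: percent of vehicle DMSO treated spheroid viability so 100% = untreated.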

Compound: CC1(C)CCC(CN2CCN(c3ccc(C(=O)NS(=O)(=O)c4ccc(NCC5CCOCC5)c([N+](=O)[O-])c4)c(Oc4cnc5[nH]ccc5c4)c3)CC2)=C(c2ccc(Cl)cc2)C1 + CC(Nc1ccc2c(c1)OCCn1cc(N3C(=O)OCC3C(F)F)nc1-2)C(N)=O
- IC50 (second compound 0.00316 µM): 6.27 µM
- IC50 (second compound 0.01 µM): 6 µM
- IC50 (second compound 0.0316 µM): 5.41 µM
- IC50 (second compound 0.1 µM): 6 µM
- IC50 (second compound 0.316 µM): 5.04 µM
- IC50 (second compound 1 µM): 3.21 µM
- viability, T/C [1]: 85.9%
- viability, T/C [2]: 78.6%
- viability, T/C [3]: 106%
- viability, T/C [4]: 115%
- viability, T/C [5]: 90.3%
- viability, T/C [6]: 22.5%
- viability, T/C [7]: 88.7%
- viability, T/C [8]: 95.1%
- viability, T/C [9]: 120%
- viability, T/C [10]: 83.1%
- viability, T/C [11]: 80.8%
- viability, T/C [12]: 26.8%
- viability, T/C [13]: 90.5%
- viability, T/C [14]: 78.8%
- viability, T/C [15]: 76.2%
- viability, T/C [16]: 103%
- viability, T/C [17]: 74.4%
- viability, T/C [18]: 22.1%
- viability, T/C [19]: 88.5%
- viability, T/C [20]: 90.9%
- viability, T/C [21]: 84.5%
- viability, T/C [22]: 82%
- viability, T/C [23]: 100%
- viability, T/C [24]: 18.6%
- viability, T/C [25]: 69.6%
- viability, T/C [26]: 71.3%
- viability, T/C [27]: 76.3%
- viability, T/C [28]: 68.8%
- viability, T/C [29]: 72.7%
- viability, T/C [30]: 18.7%
- viability, T/C [31]: 62.6%
- viability, T/C [32]: 59.7%
- viability, T/C [33]: 57%
- viability, T/C [34]: 65.2%
- viability, T/C [35]: 47.6%
- viability, T/C [36]: 20.3%

Compound: C[C@@H](NC(=O)c1ncnc(N)c1Cl)c1ncc(C(=O)Nc2cc(C(F)(F)F)c(Cl)cn2)s1 + CC(Nc1ccc2c(c1)OCCn1cc(N3C(=O)OCC3C(F)F)nc1-2)C(N)=O
- IC50 (second compound 0.00316 µM): > 10 µM
- IC50 (second compound 0.01 µM): > 10 µM
- IC50 (second compound 0.0316 µM): > 10 µM
- IC50 (second compound 0.1 µM): > 10 µM
- IC50 (second compound 0.316 µM): 9.36 µM
- IC50 (second compound 1 µM): 9.57 µM
- viability, T/C [1]: 97.2%
- viability, T/C [2]: 92.4%
- viability, T/C [3]: 104%
- viability, T/C [4]: 110%
- viability, T/C [5]: 87.5%
- viability, T/C [6]: 99.4%
- viability, T/C [7]: 95.3%
- viability, T/C [8]: 88.6%
- viability, T/C [9]: 105%
- viability, T/C [10]: 107%
- viability, T/C [11]: 111%
- viability, T/C [12]: 90.5%
- viability, T/C [13]: 94.8%
- viability, T/C [14]: 88.8%
- viability, T/C [15]: 92.7%
- viability, T/C [16]: 113%
- viability, T/C [17]: 99.6%
- viability, T/C [18]: 80.3%
- viability, T/C [19]: 89%
- viability, T/C [20]: 98.4%
- viability, T/C [21]: 100%
- viability, T/C [22]: 107%
- viability, T/C [23]: 92.6%
- viability, T/C [24]: 85.6%
- viability, T/C [25]: 108%
- viability, T/C [26]: 111%
- viability, T/C [27]: 83.7%
- viability, T/C [28]: 79%
- viability, T/C [29]: 104%
- viability, T/C [30]: 47.2%
- viability, T/C [31]: 66.7%
- viability, T/C [32]: 95.4%
- viability, T/C [33]: 78.4%
- viability, T/C [34]: 86.5%
- viability, T/C [35]: 90%
- viability, T/C [36]: 48.7%

Compound: Cn1ncnc1[C@H]1c2n[nH]c(=O)c3cc(F)cc(c23)N[C@@H]1c1ccc(F)cc1 + CC(Nc1ccc2c(c1)OCCn1cc(N3C(=O)OCC3C(F)F)nc1-2)C(N)=O
- IC50 (second compound 0.00316 µM): > 0.1 µM
- IC50 (second compound 0.01 µM): > 0.1 µM
- IC50 (second compound 0.0316 µM): > 0.1 µM
- IC50 (second compound 0.1 µM): > 0.1 µM
- IC50 (second compound 0.316 µM): > 0.1 µM
- IC50 (second compound 1 µM): 0.01 µM
- viability, T/C (second compound 0.00316 µM, first compound 0.000316 µM): 87.1%
- viability, T/C (second compound 0.00316 µM, first compound 0.001 µM): 99.8%
- viability, T/C (second compound 0.00316 µM, first compound 0.00316 µM): 102%
- viability, T/C (second compound 0.00316 µM, first compound 0.01 µM): 87.2%
- viability, T/C [1]: 78.6%
- viability, T/C [2]: 78.2%
- viability, T/C (second compound 0.01 µM, first compound 0.000316 µM): 79.6%
- viability, T/C (second compound 0.01 µM, first compound 0.001 µM): 83.4%
- viability, T/C (second compound 0.01 µM, first compound 0.00316 µM): 112%
- viability, T/C (second compound 0.01 µM, first compound 0.01 µM): 87.5%
- viability, T/C [7]: 73.7%
- viability, T/C [8]: 95.7%
- viability, T/C (second compound 0.0316 µM, first compound 0.000316 µM): 84.6%
- viability, T/C (second compound 0.0316 µM, first compound 0.001 µM): 102%
- viability, T/C (second compound 0.0316 µM, first compound 0.00316 µM): 84.2%
- viability, T/C (second compound 0.0316 µM, first compound 0.01 µM): 67.9%
- viability, T/C [13]: 80.6%
- viability, T/C [14]: 103%
- viability, T/C (second compound 0.1 µM, first compound 0.000316 µM): 88.1%
- viability, T/C (second compound 0.1 µM, first compound 0.001 µM): 102%
- viability, T/C (second compound 0.1 µM, first compound 0.00316 µM): 95.3%
- viability, T/C (second compound 0.1 µM, first compound 0.01 µM): 79.7%
- viability, T/C [19]: 93.3%
- viability, T/C [20]: 78.2%
- viability, T/C (second compound 0.316 µM, first compound 0.000316 µM): 70.5%
- viability, T/C (second compound 0.316 µM, first compound 0.001 µM): 94.3%
- viability, T/C (second compound 0.316 µM, first compound 0.00316 µM): 82.2%
- viability, T/C (second compound 0.316 µM, first compound 0.01 µM): 91.3%
- viability, T/C [25]: 62.4%
- viability, T/C [26]: 85.8%
- viability, T/C (second compound 1 µM, first compound 0.000316 µM): 67.6%
- viability, T/C (second compound 1 µM, first compound 0.001 µM): 72%
- viability, T/C (second compound 1 µM, first compound 0.00316 µM): 45.1%
- viability, T/C (second compound 1 µM, first compound 0.01 µM): 44.5%
- viability, T/C [31]: 61.3%
- viability, T/C [32]: 51%
